Data: patent US9957214B2, “Multifunctional radical quenchers” (ARIZONA BOARD OF REGENTS ON BEHALF OF ARIZONA STATE …, priority 2012, dated 2018)
Entries after “also recorded” stand apart in the source; their conditions may differ.

Legend:
[1] = test system: FRDA lymphocytes; experiment: Preservation of mitochondrial membrane potential (TMRM flow cytometry) in DEM-treated FRDA lymphocytes; type: cell-based
Protocol: FIG. 3. Effect of nitrogen-containing 1,4-benzoquinone derivatives on mitochondrial membrane potential of cultured FRDA cells. Representative flow cytometric two dimensional color density dot plot analyses of mitochondrial membrane potential Δψm in FRDA lymphocytes stained with TMRM and analyzed using the FL2-H channel as described in Experimental Section. The cells were washed twice in phosphate buffered saline, and suspended in phosphate buffered saline containing 20 mM glucose. The percentage of cells with intact Δψm is indicated in the top right quadrant of captions. In each analysis, 10,000 events were recorded. Data are expressed as means±SEM of three independent experiments run in duplicate.
Mitochondrial membrane potential was measured using two different fluorescent dyes, TMRM and JC-1. Δψm was determined as previously described by staining FRDA lymphocyte cells with TMRM (Molecular Probes, Eugene, Oreg.) and analyzing fluorescence emission by flow cytometry in detection channel 2 (FL2-H) (Khdour et al. (2011) Pharmaceut. Res. 28, 2896-2909). Briefly, FRDA lymphocytes were pre-treated with or without the test compounds for 16 h. The cells were treated with 5 mM DEM for 140 min, collected by centrifugation at 300×g for 3 min and then washed twice with phosphate buffered saline. The cells were resuspended in PBS containing […] and incubated at 37° C. in the dark for 15 min with 250 nM TMRM. Cells were collected by centrifugation at 300×g for 3 min and were then washed with phosphate buffered saline. The samples were analyzed immediately by flow cytometry using a 488 nm excitation laser and the FL2-H channel. The results obtained were verified in three independent experiments. […] In each analysis, 10,000 events were recorded. […] The following day, cells were treated with tested compounds and incubated for an additional 12 h before treatment with 1 mM BSO. Δψm was assessed after 24 h using JC-1 Mitochondrial Membrane Potential Detection Kit (Biotium, Inc) following the manufacturer instruction. Glass cover slips were rinsed with phosphate-buffered saline and mounted onto slides, and images were recorded and analyzed with a Zeiss AxioCam MRm and AxioVision 3.1 software (Carl Zeiss Goettingen, Germany) on a Zeiss Axiovert 200 M inverted microscope, equipped with a 40× oil immersion objective.
The ability of the test compounds to preserve mitochondrial membrane potential under conditions of oxidative stress was studied. […] Changes in mitochondrial membrane potential (Δψm) were measured using two different fluorescent dyes, tetramethylrhodamine methyl ester (TMRM) and 5,5′,6,6′-tetrachloro-1,1′,3,3′-tetraethylbenzimidazolocarbocyanine iodide (JC-1). […] The fluorescence signal of TMRM can be directly co-related to Δψm across the inner mitochondrial membrane. […]

[2] = biological target: bovine heart mitochondrial complex I (Bos taurus, UniProt P03887+P17694+P42026); experiment: Complex I (NADH-Q1 oxidoreductase) inhibition in submitochondrial particles; type: biochemical; settings: submitochondrial particles, 30° C.; for IC50: read-out: Complex I inhibition IC50; for Emax: read-out: Complex I inhibition Imax
[3] = test system: CEM leukemia cells; experiment: Suppression of ROS production (DCFH-DA flow cytometry) in DEM-treated CEM leukemia cells; type: cell-based; settings: CEM leukemia cells pretreated with DEM, read-out: Scavenging activity (%), suppression of ROS production
Protocol: FIG. 1. Flow cytometric analysis of CEM leukemia lymphocytes (gray bars) and FRDA lymphocytes (black bars) stained with dichlorodihydrofluorescein diacetate (DCFH-DA) for 20 min, following pretreatment with the test compounds at 5 μM concentration for 16 h, and subsequent treatment with diethyl maleate (DEM) for 60 or 80 min to induce the production of ROS in CEM and FRDA lymphocytes, respectively. Data shown represent the mean±SEM of two different experiments run as duplicates.
Intracellular ROS production was measured in FRDA lymphocyte cells (GM15850, Coriell Cell Repositories, Camden, N.J.) using the oxidant sensitive fluorescent probe 2,7-dichlorodihydrofluorescein diacetate (DCFH-DA) (Molecular Probes) as described previously (Khdour et al. (2011) Pharm. Res. 28, 2896-2909). One mL of FRDA lymphocyte cells or leukemic CEM cells (5×10^5 cells) were plated in a 24-well plate, treated with the test compounds and incubated at 37° C. for 16 h in a humidified atmosphere containing 5% CO2 in air. Cells were treated with 5 mM diethyl maleate (DEM) for 80 min or 60 min respectively, collected by centrifugation at 300×g for 3 min and then washed with phosphate buffered saline (PBS) (Life Technologies). Cells were resuspended in PBS containing 20 mM glucose and incubated at 37° C. in the dark for […] with 10 μM DCFH-DA. Cells were collected by centrifugation at 300×g for 3 min and then washed with PBS. The samples were analyzed immediately by flow cytometry (C6 Accuri, BD Biosciences, San Jose, Calif.), using a 488 nm excitation laser and the FL1-H channel 530±15 nm emission filter. The generation of ROS, mainly peroxides, was detected as a result of the oxidation of DCFH. In each analysis, 10,000 events were recorded after cell debris was electronically gated out. Results obtained were verified by running duplicates and repeating experiments in three independent runs. Results were expressed as percentage of ROS scavenging activity.
The ability of the synthesized analogues to quench ROS and lipid peroxidation was evaluated in FRDA lymphocytes or leukemic CEM cells. These cells were placed under oxidative stress by depleting them of glutathione (GSH) using diethyl maleate (DEM). Depletion of glutathione by treatment FRDA lymphocytes or leukemic CEM cells with DEM has been used to induce oxidative stress in cellular systems by generation of ROS. Intracellular ROS production was measured using the oxidant sensitive fluorescent probe 2,7-dichlorodihydrofluorescein diacetate (DCFH-DA) (Molecular Probes).

bovine heart mitochondrial complex I, sequence (P25708 21-464): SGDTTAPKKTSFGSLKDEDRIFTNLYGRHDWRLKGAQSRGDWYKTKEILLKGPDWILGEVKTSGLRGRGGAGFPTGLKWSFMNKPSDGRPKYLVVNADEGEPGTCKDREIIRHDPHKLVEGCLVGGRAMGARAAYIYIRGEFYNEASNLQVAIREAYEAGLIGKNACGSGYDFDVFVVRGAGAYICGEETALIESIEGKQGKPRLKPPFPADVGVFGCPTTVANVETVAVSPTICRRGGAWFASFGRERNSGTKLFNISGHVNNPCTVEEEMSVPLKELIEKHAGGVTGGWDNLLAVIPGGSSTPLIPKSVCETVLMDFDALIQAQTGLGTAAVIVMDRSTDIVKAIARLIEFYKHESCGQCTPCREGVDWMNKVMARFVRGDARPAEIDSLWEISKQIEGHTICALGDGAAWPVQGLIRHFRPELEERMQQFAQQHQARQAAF
bovine heart mitochondrial complex I, sequence (P42026 38-216): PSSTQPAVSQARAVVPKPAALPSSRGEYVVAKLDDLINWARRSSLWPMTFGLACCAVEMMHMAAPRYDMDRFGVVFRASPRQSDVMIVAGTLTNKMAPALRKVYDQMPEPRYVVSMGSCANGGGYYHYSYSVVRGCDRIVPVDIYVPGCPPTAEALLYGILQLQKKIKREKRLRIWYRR
bovine heart mitochondrial complex I, sequence (P17694 34-463): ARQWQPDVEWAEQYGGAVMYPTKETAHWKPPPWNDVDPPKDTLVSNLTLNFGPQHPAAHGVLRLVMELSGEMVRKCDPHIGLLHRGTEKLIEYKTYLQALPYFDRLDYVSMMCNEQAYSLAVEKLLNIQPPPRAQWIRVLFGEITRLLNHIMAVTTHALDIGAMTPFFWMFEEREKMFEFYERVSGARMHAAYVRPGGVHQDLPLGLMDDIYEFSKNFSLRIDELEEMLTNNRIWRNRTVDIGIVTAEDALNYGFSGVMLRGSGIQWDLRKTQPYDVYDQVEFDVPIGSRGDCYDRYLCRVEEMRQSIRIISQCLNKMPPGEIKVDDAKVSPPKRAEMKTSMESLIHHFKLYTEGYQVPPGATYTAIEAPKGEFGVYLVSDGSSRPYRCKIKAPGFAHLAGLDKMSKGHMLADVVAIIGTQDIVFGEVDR
bovine heart mitochondrial complex I, sequence (P15690 24-727, further chain): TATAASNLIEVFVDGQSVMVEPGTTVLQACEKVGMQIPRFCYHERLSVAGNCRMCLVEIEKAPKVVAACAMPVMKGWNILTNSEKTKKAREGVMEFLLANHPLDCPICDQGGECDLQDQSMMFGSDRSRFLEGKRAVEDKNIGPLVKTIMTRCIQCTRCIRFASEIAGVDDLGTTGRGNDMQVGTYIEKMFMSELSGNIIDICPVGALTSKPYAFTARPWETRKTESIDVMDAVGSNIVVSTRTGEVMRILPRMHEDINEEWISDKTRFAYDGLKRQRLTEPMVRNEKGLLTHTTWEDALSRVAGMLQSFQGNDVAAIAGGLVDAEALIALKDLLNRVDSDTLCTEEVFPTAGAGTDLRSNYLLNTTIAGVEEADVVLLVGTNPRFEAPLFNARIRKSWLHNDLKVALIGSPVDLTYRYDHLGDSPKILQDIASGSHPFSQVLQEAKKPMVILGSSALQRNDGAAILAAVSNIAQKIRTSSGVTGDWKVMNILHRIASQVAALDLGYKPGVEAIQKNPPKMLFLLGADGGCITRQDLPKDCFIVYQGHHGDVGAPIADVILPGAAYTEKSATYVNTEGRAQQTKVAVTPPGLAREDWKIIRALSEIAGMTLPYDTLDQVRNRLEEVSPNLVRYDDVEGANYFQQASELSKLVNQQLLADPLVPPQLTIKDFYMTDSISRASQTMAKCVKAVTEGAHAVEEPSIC
bovine heart mitochondrial complex I, sequence (P03887 whole entry): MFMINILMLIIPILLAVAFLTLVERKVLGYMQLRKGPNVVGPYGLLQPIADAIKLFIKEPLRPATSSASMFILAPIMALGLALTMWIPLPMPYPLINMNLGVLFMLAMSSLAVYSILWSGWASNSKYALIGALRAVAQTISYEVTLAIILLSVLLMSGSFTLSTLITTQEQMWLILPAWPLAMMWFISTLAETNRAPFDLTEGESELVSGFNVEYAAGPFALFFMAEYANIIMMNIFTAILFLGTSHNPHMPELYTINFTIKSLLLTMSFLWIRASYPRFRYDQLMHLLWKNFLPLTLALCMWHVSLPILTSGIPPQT
bovine heart mitochondrial complex I, sequence (P42028 37-212, further chain): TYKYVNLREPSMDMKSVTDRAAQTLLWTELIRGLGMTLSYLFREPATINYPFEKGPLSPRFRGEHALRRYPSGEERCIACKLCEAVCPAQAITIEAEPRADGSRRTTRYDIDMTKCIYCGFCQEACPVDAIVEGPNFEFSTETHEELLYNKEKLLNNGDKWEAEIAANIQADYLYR

SMILES	Preservation of mitochondrial membrane potential Δψm (in words) [1]	IC50 [2] [µM]	Emax [2] [%]	inhibition at 5 µM [3] [%]
COC1=C2CCCCCCCCCCCCCCCNC(=CC1=O)C2=O [Compound 40]	prevented the loss of Δψm; also recorded: able to prevent oxidative-stress induced collapse of Δψm	–	–	–
CCCCCCCCCCCCCC1=C(OC)C(=O)C=C(NCCCC(=O)OCCCCCC)C1=O [Compound 18, Hexyl 4-(4-methoxy-3,6-dioxo-5-tridecylcyclohexa-1,4-dienylamino)butanoate]	prevented the loss of Δψm	513 ± 38	> 85	–
CCCCCCCCCCCCCC1=C(OC)C(=O)C(C)=C(NCCCC(=O)OCCCC)C1=O [Compound 46, Butyl 4-(4-methoxy-2-methyl-3,6-dioxo-5-tridecylcyclohexa-1,4-dienylamino)butanoate]	–	–	–	50 ± 5
CCCCCCCCCCCCCC1=C(OC)C(=O)C(C)=C(NCCCC(=O)OCCCCCC)C1=O [Compound 49, Hexyl 4-(4-methoxy-2-methyl-3,6-dioxo-5-tridecylcyclohexa-1,4-dienylamino)butanoate]	–	–	–	16 ± 8
CCCCCCCCCCCCCC1=C(NCCCC(=O)OCCCCCC)C(=O)C(C)=C(NCCCC(=O)OCCCCCC)C1=O [Compound 50, 2,5-bis(hexyl 4-aminobutanoate)-3-methyl-6-tridecylcyclohexa-2,5-diene-1,4-dione]	–	–	–	14 ± 1
CCCCCCCCCCCCCC1=C(OC)C(=O)C(C)=C(NCCCC(=O)OC(C)(C)C)C1=O [Compound 43, tert-butyl 4-(4-methoxy-2-methyl-3,6-dioxo-5-tridecylcyclohexa-1,4-dienylamino)butanoate]	–	–	–	35 ± 6
CCCCCCCCCCCCCC1=C(OC)C(=O)C=C(NCCCC(=O)OC(C)(C)C)C1=O [Compound 7, tert-butyl 4-(4-methoxy-3,6-dioxo-5-tridecylcyclohexa-1,4-dienylamino)butanoate]	preserved mitochondrial membrane potential; also recorded: able to prevent oxidative-stress induced collapse of Δψm	540 ± 17	> 85	–
